Measurements published in US20230109010A1, “PESTICIDE COMPOSITIONS WITH SUPRAMOLECULAR STRUCTURES FOR AGRICULTURAL USE” (BPS JUST ENERGY TECHNOLOGY, LLC, priority 2020, published 2023).

Key:
Experiment in all cases: Field trial in corn, herbicide applied 3 days after planting, % weed control
large crabgrass = assay type: in vivo, Digitaria sanguinalis
Method: (§1) The herbicides tested were acetochlor and s-metolachlor. Each herbicide was combined at the specified rate with either deionized water or SymMAX™ supramolecular host chemistry that is commercially available from Shotwell Hydrogenics at 15 gallons per acre (GPA). Specified rates for acetochlor were 0.5 parts per acre, 1 part per acre, and 2 parts per acre. […]
(§2) This example was conducted as a 4 replicate, RCBD (randomized control block design) in Quitman, GA. An untreated control was used as a standard that provided no weed control and no phytotoxicity. All treatments were compared to the untreated control. Counted dead weeds and living weeds were used to determine % weed control. The untreated control was also used to determine % crop phytotoxicity for the crop. Typical indications of phytotoxicity include chlorosis, stunting, epinasty, and/or leaf burn.
(§3) The trial ran for 28 days with weekly data assessments taken on % crop phytotoxicity and % weed control of three key species: palmer amaranth (Amaranthus palmeri), fall panicum (Panicum dichotomiflorum) and large crabgrass (Digitaria sanguinalis). The test field was over seeded with weed seed obtained from the University of Georgia prior to corn planting. Treatments were applied 3 days after planting as a broadcast application at various rates ranging from about 0.5 parts per acre to about 2 parts per acre. Tables 1-4 show the % weed control when the weeds are treated with acetachlor. Tables 4-8 show the % weed control when the weeds are treated with s-metolachlor.

palmer amaranth = assay type: in vivo, Amaranthus palmeri
Method: as §1, §2, §3

fall panicum = assay type: in vivo, Panicum dichotomiflorum
Method: as §1, §2, §3

[1] = 7 days, acetochlor 0.5 part/acre
[2] = 7 days, acetochlor 2 parts/acre
[3] = 14 days, acetochlor 0.5 part/acre
[4] = 14 days, acetochlor 1 part/acre
[5] = 14 days, acetochlor 2 parts/acre
[6] = 21 days, acetochlor 0.5 part/acre
[7] = 21 days, acetochlor 1 part/acre
[8] = 21 days, acetochlor 2 parts/acre
[9] = 28 days, acetochlor 0.5 part/acre
[10] = 28 days, acetochlor 1 part/acre
[11] = 28 days, acetochlor 2 parts/acre

CCOCN(C(=O)CCl)c1c(C)cccc1CC [Acetochlor, acetochlor]
% WEED CONTROL FOR LARGE CRABGRASS (large crabgrass; [1]): 69.5%
% WEED CONTROL FOR LARGE CRABGRASS (large crabgrass; 7 days, acetochlor 1 part/acre): 74.5%
% WEED CONTROL FOR LARGE CRABGRASS (large crabgrass; [2]): 87.0%
% WEED CONTROL FOR LARGE CRABGRASS (large crabgrass; [3]): 45.8%
% WEED CONTROL FOR LARGE CRABGRASS (large crabgrass; [4]): 49.0%
% WEED CONTROL FOR LARGE CRABGRASS (large crabgrass; [5]): 74.5%
% WEED CONTROL FOR LARGE CRABGRASS (large crabgrass; [6]): 45.3%
% WEED CONTROL FOR LARGE CRABGRASS (large crabgrass; [7]): 43.0%
% WEED CONTROL FOR LARGE CRABGRASS (large crabgrass; [8]): 73.3%
% WEED CONTROL FOR LARGE CRABGRASS (large crabgrass; [9]): 47.8%
% WEED CONTROL FOR LARGE CRABGRASS (large crabgrass; [10]): 48.0%
% WEED CONTROL FOR LARGE CRABGRASS (large crabgrass; [11]): 92.1%
% WEED CONTROL FOR PALMER AMARANTH (palmer amaranth; [1]): 87.0%
% WEED CONTROL FOR PALMER AMARANTH (palmer amaranth; 7 days, acetochlor 1 part/acre): 88.5%
% WEED CONTROL FOR PALMER AMARANTH (palmer amaranth; [2]): 93.3%
% WEED CONTROL FOR PALMER AMARANTH (palmer amaranth; [3]): 82.3%
% WEED CONTROL FOR PALMER AMARANTH (palmer amaranth; [4]): 87.0%
% WEED CONTROL FOR PALMER AMARANTH (palmer amaranth; [5]): 97.7%
% WEED CONTROL FOR PALMER AMARANTH (palmer amaranth; [6]): 61.7%
% WEED CONTROL FOR PALMER AMARANTH (palmer amaranth; [7]): 81.0%
% WEED CONTROL FOR PALMER AMARANTH (palmer amaranth; [8]): 90.0%
% WEED CONTROL FOR PALMER AMARANTH (palmer amaranth; [9]): 44.5%
% WEED CONTROL FOR PALMER AMARANTH (palmer amaranth; [10]): 67.4%
% WEED CONTROL FOR PALMER AMARANTH (palmer amaranth; [11]): 99.7%
% WEED CONTROL FOR FALL PANICUM (fall panicum; [1]): 65.5%
% WEED CONTROL FOR FALL PANICUM (fall panicum; 7 days, acetochlor 1 part/acre): 69.3%
% WEED CONTROL FOR FALL PANICUM (fall panicum; [2]): 87.3%
% WEED CONTROL FOR FALL PANICUM (fall panicum; [3]): 49.3%
% WEED CONTROL FOR FALL PANICUM (fall panicum; [4]): 53.0%
% WEED CONTROL FOR FALL PANICUM (fall panicum; [5]): 78.0%
% WEED CONTROL FOR FALL PANICUM (fall panicum; [6]): 37.6%
% WEED CONTROL FOR FALL PANICUM (fall panicum; [7]): 40.9%
% WEED CONTROL FOR FALL PANICUM (fall panicum; [8]): 81.3%
% WEED CONTROL FOR FALL PANICUM (fall panicum; [9]): 60.0%
% WEED CONTROL FOR FALL PANICUM (fall panicum; [10]): 57.3%
% WEED CONTROL FOR FALL PANICUM (fall panicum; [11]): 88.0%
